Measurements as given in patent US11026427B2, “Microbiocidal oxadiazole derivatives” (SYNGENTA PARTICIPATIONS AG, priority 2016, dated 2021).

Tests used:
[1] = test system: Puccinia recondita f. Sp. tritici; assay: Puccinia recondita f. sp. tritici / wheat / leaf disc curative (brown rust); format: in vivo; conditions: foliar, 200 ppm in the applied formulation, compared to untreated control, read-out: disease control
Description: (§1) Leaf disks or leaf segments of various plant species are cut from plants grown in a greenhouse. The cut leaf disks or segments are placed in multiwell plates (24-well format) onto water agar. The leaf disks are sprayed with a test solution before (preventative) or after (curative) inoculation. Compounds to be tested are prepared as DMSO solutions (max. 10 mg/ml) which are diluted to the appropriate concentration with 0.025% Tween20 just before spraying. The inoculated leaf disks or segments are incubated under defined conditions (temperature, relative humidity, light, etc.) according to the respective test system. A single evaluation of disease level is carried out 3 to 14 days after inoculation, depending on the pathosystem. Percent disease control relative to the untreated check leaf disks or segments is then calculated.
Wheat leaf segments cv. Kanzler are placed on agar in multiwell plates (24-well format). The leaf segments are then inoculated with a spore suspension of the fungus. Plates were stored in darkness at 19° C. and 75% relative humidity. The formulated test compound diluted in water was applied 1 day after inoculation. The leaf segments were incubated at 19° C. and 75% relative humidity under a light regime of 12 hours light/12 hours darkness in a climate cabinet and the activity of a compound was assessed as percent disease control compared to untreated when an appropriate level of disease damage appears in untreated check leaf segments (6 to 8 days after application).
(§2) The following compounds at 200 ppm in the applied formulation give at least 80% disease control in this test when compared to untreated control leaf disks under the same conditions, which show extensive disease development.

[2] = test system: Glomerella lacenarium (Colletotrichum lacenarium); assay: Glomerella lacenarium (Colletotrichum lacenarium) liquid culture / cucumber / preventative (anthracnose); format: cell-based; conditions: 20 ppm in the applied formulation, growth inhibition measured photometrically, compared to untreated control, read-out: disease control
Description: Mycelia fragments or conidia suspensions of a fungus prepared either freshly from liquid cultures of the fungus or from cryogenic storage, are directly mixed into nutrient broth. DMSO solutions of the test compound (max. 10 mg/ml) are diluted with 0.025% Tween20 by a factor of 50 and 10 μl of this solution is pipetted into a microtiter plate (96-well format). The nutrient broth containing the fungal spores/mycelia fragments is then added to give an end concentration of the tested compound. The test plates are incubated in the dark at 24° C. and 96% relative humidity. The inhibition of fungal growth is determined photometrically after 2 to 7 days, depending on the pathosystem, and percent antifungal activity relative to the untreated check is calculated.
Conidia of the fungus from cryogenic storage are directly mixed into nutrient broth (PDB—potato dextrose broth). After placing a (DMSO) solution of test compound into a microtiter plate (96-well format), the nutrient broth containing the fungal spores is added. The test plates are incubated at 24° C. and the inhibition of growth is measured photometrically 3 to 4 days after application.
The following compounds at 20 ppm in the applied formulation give at least 80% disease control in this test when compared to untreated control under the same conditions, which show extensive disease development.

Phakopsora pachyrhizi = Phakopsora pachyrhizi / soybean / leaf disc preventative (Asian soybean rust); format: in vivo; conditions: foliar, 200 ppm in the applied formulation, compared to untreated control, read-out: disease control
Description: as §1
Soybean leaf disks are placed on water agar in multiwell plates (24-well format) and sprayed with the formulated test compound diluted in water. One day after application leaf discs are inoculated by spraying a spore suspension on the lower leaf surface. After an incubation period in a climate cabinet of 24-36 hours in darkness at 20° C. and 75% rh leaf disc are kept at 20° C. with 12 h light/day and 75% rh. The activity of a compound is assessed as percent disease control compared to untreated when an appropriate level of disease damage appears in untreated check leaf disks (12 to 14 days after application).
as §2

[3] = test system: Puccinia recondita f. Sp. tritici; assay: Puccinia recondita f. sp. tritici / wheat / leaf disc preventative (brown rust); format: in vivo; conditions: foliar, 200 ppm in the applied formulation, compared to untreated control, read-out: disease control
Description: as §1, with “calculated. Wheat leaf segments cv. Kanzler were placed on agar in multiwell plates (24-well format) and sprayed with the formulated test compound diluted in water. The leaf disks were inoculated with a spore suspension of the fungus 1 day after application. The inoculated leaf segments were incubated at 19° C. and 75% relative humidity (rh) under a light regime of 12 hours light/12 hours darkness in a climate cabinet and the activity of a compound was assessed as percent disease control compared to untreated when an appropriate level of disease damage appears in untreated check leaf segments (7 to 9 days after application). The following compounds at 200 ppm in the applied formulation give at least 80% disease control in this test when compared to untreated control leaf disks under the same conditions, which show extensive disease development.” for “calculated.”

| Structure (SMILES) | pest or weed control at 200 ppm [1] [%] | inhibition of growth at 20 ppm [2] [%] | pest or weed control at 200 ppm (Phakopsora pachyrhizi) [%] | pest or weed control at 200 ppm [3] [%] | melting point [°C] |
| --- | --- | --- | --- | --- | --- |
| Cc1cc(C(=O)c2ccc(-c3noc(C(F)(F)F)n3)cc2)on1 [Compound 1.13, (3-methylisoxazol-5-yl)-[4-[5-(trifluoromethyl)-1,2,4-oxadiazol-3-yl]phenyl]methanone] | ≥ 80 | ≥ 80 | ≥ 80 | ≥ 80 |  |
| CCc1cc(C(=O)c2ccc(-c3noc(C(F)(F)F)n3)cc2)on1 [Compound 1.14, (3-ethylisoxazol-5-yl)-[4-[5-(trifluoromethyl)-1,2,4-oxadiazol-3-yl]phenyl]methanone] | ≥ 80 | ≥ 80 | ≥ 80 | ≥ 80 |  |
| O=C(c1ccc(-c2noc(C(F)(F)F)n2)cc1)c1ccccn1 [Compound 1.16, 2-pyridyl-[4-[5-(trifluoromethyl)-1,2,4-oxadiazol-3-yl]phenyl]methanone] | ≥ 80 | ≥ 80 | ≥ 80 | ≥ 80 | 66 to 70 |
| CCn1cc(C(=O)c2ccc(-c3noc(C(F)(F)F)n3)cc2)cn1 [Compound 1.17, (1-ethylpyrazol-4-yl)-[4-[5-(trifluoromethyl)-1,2,4-oxadiazol-3-yl]phenyl]methanone] | ≥ 80 | ≥ 80 | ≥ 80 | ≥ 80 | 80 to 86 |
| Cc1cccc(C(=O)c2ccc(-c3noc(C(F)(F)F)n3)cc2)n1 [Compound 1.18, (6-methyl-2-pyridyl)-[4-[5-(trifluoromethyl)-1,2,4-oxadiazol-3-yl]phenyl]methanone] | ≥ 80 | ≥ 80 | ≥ 80 | ≥ 80 |  |
| COc1ccc(C(=O)c2ccc(-c3noc(C(F)(F)F)n3)cc2)nc1 [Compound 1.20, (5-methoxy-2-pyridyl)-[4-[5-(trifluoromethyl)-1,2,4-oxadiazol-3-yl]phenyl]methanone] | ≥ 80 | ≥ 80 | ≥ 80 | ≥ 80 | 65 to 73 |
| O=C(c1ccc(-c2noc(C(F)(F)F)n2)cc1)c1nccs1 [Compound 1.24, thiazol-2-yl-[4-[5-(trifluoromethyl)-1,2,4-oxadiazol-3-yl]phenyl]methanone] | ≥ 80 | ≥ 80 | ≥ 80 | ≥ 80 | 84 to 90 |
| N#Cc1ccc(C(=O)c2ccc(-c3noc(C(F)(F)F)n3)nc2)cc1 [Compound 1.30, 4-[6-[5-(trifluoromethyl)-1,2,4-oxadiazol-3-yl]pyridine-3-carbonyl]benzonitrile] | ≥ 80 | ≥ 80 |  | ≥ 80 | 142 to 146 |
| Cc1nc(C(=O)c2ccc(-c3noc(C(F)(F)F)n3)cc2)cs1 [Compound 1.33, (2-methylthiazol-4-yl)-[4-[5-(trifluoromethyl)-1,2,4-oxadiazol-3-yl]phenyl]methanone] | ≥ 80 | ≥ 80 |  | ≥ 80 |  |
| O=C(c1ccc(-c2noc(C(F)(F)F)n2)cc1)c1ccno1 [Compound 1.35, isoxazol-5-yl-[4-[5-(trifluoromethyl)-1,2,4-oxadiazol-3-yl]phenyl]methanone] | ≥ 80 | ≥ 80 |  | ≥ 80 | 112 to 118 |
| Cc1ccc(C(=O)c2ccc(-c3noc(C(F)(F)F)n3)cc2)nc1 [Compound 1.37, (5-methyl-2-pyridyl)-[4-[5-(trifluoromethyl)-1,2,4-oxadiazol-3-yl]phenyl]methanone] | ≥ 80 | ≥ 80 |  | ≥ 80 |  |
| OC(c1ccc(-c2noc(C(F)(F)F)n2)cc1)c1ccccn1 (stereo not shown) [Compound 2.12, 2-pyridyl-[4-[5-(trifluoromethyl)-1,2,4-oxadiazol-3-yl]phenyl]methanol] | ≥ 80 | ≥ 80 | ≥ 80 | ≥ 80 |  |
| Cc1cccc(C(O)c2ccc(-c3noc(C(F)(F)F)n3)cc2)n1 (stereo not shown) [Compound 2.13, (6-methyl-2-pyridyl)-[4-[5-(trifluoromethyl)-1,2,4-oxadiazol-3-yl]phenyl]methanol] | ≥ 80 | ≥ 80 | ≥ 80 | ≥ 80 |  |
| OC(c1ccc(-c2noc(C(F)(F)F)n2)cc1)c1cscn1 (stereo not shown) [Compound 2.18, thiazol-4-yl-[4-[5-(trifluoromethyl)-1,2,4-oxadiazol-3-yl]phenyl]methanol] | ≥ 80 | ≥ 80 |  | ≥ 80 | 56 to 60 |
| Cc1nc(C(O)c2ccc(-c3noc(C(F)(F)F)n3)cc2)cs1 (stereo not shown) [Compound 2.20, (2-methylthiazol-4-yl)-[4-[5-(trifluoromethyl)-1,2,4-oxadiazol-3-yl]phenyl]methanol] | ≥ 80 |  |  | ≥ 80 | 95 to 99 |
| Cc1ncc(C(O)c2ccc(-c3noc(C(F)(F)F)n3)cc2)s1 (stereo not shown) [Compound 2.22, (2-methylthiazol-5-yl)-[4-[5-(trifluoromethyl)-1,2,4-oxadiazol-3-yl]phenyl]methanol] | ≥ 80 |  |  | ≥ 80 | 104 to 108 |
| C=C(C)CC(O)(c1ccc(-c2noc(C(F)(F)F)n2)cc1)c1cc(C)no1 (stereo not shown) [Compound 2.24, 3-methyl-1-(3-methylisoxazol-5-yl)-1-[4-[5-(trifluoromethyl)-1,2,4-oxadiazol-3-yl]phenyl]but-3-en-1-ol] | ≥ 80 |  |  | ≥ 80 |  |
| Cc1cc(C(C)(O)c2ccc(-c3noc(C(F)(F)F)n3)cc2)on1 (stereo not shown) [Compound 2.26, 1-(3-methylisoxazol-5-yl)-1-[4-[5-(trifluoromethyl)-1,2,4-oxadiazol-3-yl]phenyl]ethanol] | ≥ 80 |  |  | ≥ 80 |  |
| CCC(O)(c1ccc(-c2noc(C(F)(F)F)n2)cc1)c1cc(C)no1 (stereo not shown) [Compound 2.27, 1-(3-methylisoxazol-5-yl)-1-[4-[5-(trifluoromethyl)-1,2,4-oxadiazol-3-yl]phenyl]propan-1-ol] | ≥ 80 |  |  | ≥ 80 |  |
